The values that follow are results of earlier work, collected in US20160346291A1, “COMPOSITIONS AND THERAPEUTIC METHODS FOR ACCELERATED PLAQUE REGRESSION” (Resverlogix Corp, priority 2013, published 2016).

Like-named read-outs stand apart in the source and are kept apart here.

For series [1], the system named is coronary atherosclerosis. Particulars: cited from earlier work.
In series [2] the test system is coronary atherosclerosis. Particulars: 2 years; rosuvastatin 40 mg daily, atorvastatin 80 mg daily; cited from earlier work.
A further series relates to ABCA1. Particulars: cited from earlier work.
Series [3] relates to coronary atherosclerosis. Particulars: 2 years; pravastatin 40 mg daily, atorvastatin 80 mg daily; cited from earlier work.

For the molecule `CC(C)c1nc(N(C)S(C)(=O)=O)nc(-c2ccc(F)cc2)c1/C=C/[C@@H](O)C[C@@H](O)CC(=O)O` [rosuvastatin, (3R,5S,6E)-7-[4-(4-fluorophenyl)-2-(N-methylmethanesulfonamido)-6-(propan-2-yl)pyrimidin-5-yl]-3,5-dihydroxyhept-6-enoic acid], the “median change PAV” value in the series with coronary atherosclerosis [1] (2 years, rosuvastatin 40 mg daily, overall) was −0.79%. Moreover, the “median decrease in PAV from baseline” value in the series with coronary atherosclerosis [1] (2 years, rosuvastatin 40 mg daily, subgroup with average HDL-C during treatment less than 40 mg/dL) is recorded as −1.3%. Besides, the PAV decrease in the series on coronary atherosclerosis [1] (FIG. 8, 40 mg of rosuvastatin without RVX-208, after 104 weeks) was 1.30%. In addition, the “median change in PAV” value in the series with coronary atherosclerosis [2] is −1.22%. For the same molecule, in the series on ABCA1, the “effect on expression of ABCA1” value was “increase expression of ABCA1”.
Consider `CC(C)c1c(C(=O)Nc2ccccc2)c(-c2ccccc2)c(-c2ccc(F)cc2)n1CC[C@@H](O)C[C@@H](O)CC(=O)O` [atorvastatin], for which the figures for the “median change in PAV” value in the series with coronary atherosclerosis [2] and with coronary atherosclerosis [3] were −0.99% and “+0.2%”, respectively. The “effect on expression of ABCA1” value in the series on ABCA1 is listed as “inhibit ABCA1 expression”.
